Experiments:
A549 cells = assay: MTT assay, viability of A549 cells; assay type: cell-based; conditions: Homo sapiens, 72 h; A549, MTT assay, 10 μM; read-out: % cells growth at 10 μM
Experimental: (§1) Cells were seeded into 96-well plates at a density of 1-2 × 10^3 cells/well and incubated for 24 h. Cells were treated with vehicle or various concentrations of test compounds for two (PC9 and PC9/ER cells) or three (other cells) days. Cells were further incubated with MTT solution (final concentration of 500 μg/mL) for 4 h at 37 °C. The formazan products were dissolved in dimethyl sulfoxide (DMSO), and the absorbance was measured at 570 nm. The data are presented as a percentage of the control group.

H460 cells = assay: MTT assay, viability of H460 cells; assay type: cell-based; conditions: Homo sapiens, NCI-H460, 72 h, three days, read-out: IC50 against the viability
Experimental: as §1

H1299 cells = assay: MTT assay, viability of H1299 cells; assay type: cell-based; conditions: Homo sapiens, NCI-H1299, 72 h, three days, read-out: IC50 against the viability
Experimental: as §1

AXL = assay: Western blot, phosphorylation of AXL in H1944 and A549 cells; assay type: cell-based, human; conditions: 100 nM monotherapy, 1 day
Experimental: (§2) Before harvesting, the cells were stimulated with 10% FBS for 20 min. Total cell lysates were prepared with modified radioimmunoprecipitation assay lysis buffer (50 mM Tris-HCl [pH 7.4], 150 mM NaCl, 1 mM EDTA, 0.25% sodium deoxycholate, 1% Triton X-100, 100 mM NaF, 5 mM Na3VO4, 1 mM PMSF, 1 μg/mL aprotinin, 1 μg/mL leupeptin, and 1 μg/mL pepstatin). Equal amounts of protein (20 μg) were subjected to 8% SDS-PAGE and electrically transferred onto polyvinylidene difluoride membranes (Bio-Rad Laboratories, Hercules, CA, USA). Membranes were blocked with blocking buffer (3% BSA in Tris-buffered saline containing 0.1% Tween-20 [TBST]) for 1 h at room temperature. The membranes were incubated with primary antibodies diluted in 3% BSA in TBST (1:1,000) overnight at 4 °C, washed multiple times with TBST, and incubated with secondary antibodies diluted in 3% nonfat dry milk in TBST (1:5,000) for 1 h at room temperature. The membranes were washed multiple times with TBST and visualized using an enhanced chemiluminescence detection kit (Thermo Fisher Scientific). Densitometric analysis was performed using ImageJ software.

IGF-1R = assay: Western blot, phosphorylation of IGF-1R in H1944 and A549 cells; assay type: cell-based, human; conditions: 2 μM monotherapy, 1 day
Experimental: as §2

| IC50 (H460 cells) [nM] | IC50 (H1299 cells) [nM] | SMILES | activity at 10 µM (A549 cells) [%] | phosphorylation of AXL (AXL) | phosphorylation of IGF-1R (IGF-1R) |
| --- | --- | --- | --- | --- | --- |
|  |  | Cc1ccc(-c2n[nH]c3ncnc(N)c23)cc1 [Compound 1a] | 98 |  |  |
|  |  | Oc1ccc(Nc2nccc(Nc3cnc4ccccc4c3)n2)cc1 [Compound 23a] | 69 |  |  |
|  |  | COc1cc(Nc2c(C#N)cnc3cc(OCCCN4CCN(C)CC4)c(OC)cc23)c(Cl)cc1Cl [Bosutinib, bosutinib, reference compound] | 46 |  |  |
| 3780 | 12800 | C[C@]1(O)C[C@@H](c2nc(-c3ccc4ccc(-c5ccccc5)nc4c3)c3c(N)nccn32)C1 [Linsitinib] |  |  | suppressed phosphorylation |
| 540 | 20 | Cc1nc(Nc2ncc(C(=O)Nc3c(C)cccc3Cl)s2)cc(N2CCN(CCO)CC2)n1 [Dasatinib, dasatinib] |  |  |  |

| SMILES | IC50 (H460 cells) [nM] | IC50 (H1299 cells) [nM] | activity at 10 µM (A549 cells) [%] | phosphorylation of AXL (AXL) | phosphorylation of IGF-1R (IGF-1R) |
| --- | --- | --- | --- | --- | --- |
| Nc1nc(Nc2ccc3c(c2)CC[C@@H](N2CCCC2)CC3)nn1-c1cc2c(nn1)-c1ccccc1CCC2 [Bemcentinib, bemcentinib] | 180 | 530 |  | suppressed phosphorylation |  |
